From patent publication US10344017B2, “Pyrrolcarboxamide derivatives for the inhibition of ERK5” (CANCER RESEARCH TECHNOLOGY LIMITED, priority 2014, dated 2019)

Target: T1, ERK5 (Homo sapiens, UniProt Q13164)
T1 construct: made in house
Assay: ERK5 IMAP assay (fluorescence polarisation)
Type: biochemical
Conditions: average (e.g. geometric mean) where more than one data point; read-out: ERK5 IC50
Experimental: The assay buffer was prepared using 0.01% Tween®-20 5× stock, supplied as part of IMAP™ FP Progressive Binding System Kit (Molecular Devices R7436) and diluted to 1× using miliQ H2O. 1 μL of a 1M DTT stock was added for every 1 mL of 1× assay buffer to give a final concentration of 1 mM DTT.
ERK5 was expressed and purified at CRT-DL by Leon Pang and Sue Young. Aliquots were stored at −80° C. The ERK5 working solution was used at a […] final dilution in assay buffer. […] For 1 plate, […] of ERK5 stock was added to 2262 μL of 1× assay buffer.
To prepare the IMAP™ binding solution for one plate 20.5 μL of IMAP™ binding reagent stock, 1476 μL of 1× binding buffer A (60%), and 984 μL of binding buffer B (40%) (IMAP™ FP Progressive screening express kit (Molecular Devices R8127) was added to 9819.5 μL of milliQ H2O.
1 μL of inhibitor (in 60:40 H2O/DMSO) or 60:40 H2O/DMSO (for controls and blanks) were dry-spotted into the relevant wells of a 384-well assay plate using the MATRIX PlateMate® Plus. 5 μL of ERK5 working solution was added to test and control wells, and 5 μL of 1× assay buffer added to blanks; 4 μL of ATP/substrate working solution was added to all wells using a Matrix multichannel pipette. The plate was sealed using DMSO resistant clear seal and incubated for 2 h at 37° C. 1 μL of the kinase reaction mixture from the first plate was dry spotted into a second 384-well assay plate using the MATRIX PlateMate® Plus. 9 μL of assay buffer was added, followed by 30 μL of IMAP™ binding solution using a multichannel pipette. The plate was incubated at RT in darkness for 2 h. The assay plate was then read on an Analyst HT plate reader (Molecular Devices) using the settings described below: […]

T1 sequence (Q13164 whole entry): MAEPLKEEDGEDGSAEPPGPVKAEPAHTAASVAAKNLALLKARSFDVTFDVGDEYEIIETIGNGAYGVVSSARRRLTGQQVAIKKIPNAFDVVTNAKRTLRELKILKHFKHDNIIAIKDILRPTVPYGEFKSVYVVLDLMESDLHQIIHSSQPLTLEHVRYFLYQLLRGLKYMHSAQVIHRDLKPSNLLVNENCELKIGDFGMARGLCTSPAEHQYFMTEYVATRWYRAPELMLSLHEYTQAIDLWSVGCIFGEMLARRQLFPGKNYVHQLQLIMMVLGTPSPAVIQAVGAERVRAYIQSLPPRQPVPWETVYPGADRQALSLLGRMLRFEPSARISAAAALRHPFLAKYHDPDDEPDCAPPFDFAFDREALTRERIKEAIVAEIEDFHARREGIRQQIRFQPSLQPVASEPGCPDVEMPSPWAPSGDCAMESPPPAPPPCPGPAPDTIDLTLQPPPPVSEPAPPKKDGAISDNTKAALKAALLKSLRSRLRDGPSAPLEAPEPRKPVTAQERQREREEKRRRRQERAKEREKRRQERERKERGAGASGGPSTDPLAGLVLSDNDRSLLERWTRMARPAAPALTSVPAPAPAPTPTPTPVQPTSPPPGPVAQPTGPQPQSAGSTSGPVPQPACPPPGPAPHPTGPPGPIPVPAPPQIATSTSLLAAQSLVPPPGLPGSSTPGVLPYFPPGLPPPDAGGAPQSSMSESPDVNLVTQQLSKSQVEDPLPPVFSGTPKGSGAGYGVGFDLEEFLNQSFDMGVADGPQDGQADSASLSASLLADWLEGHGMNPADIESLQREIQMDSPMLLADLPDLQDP

Row | SMILES | IC50
1 | Cc1cc(NC(=O)c2cc(C(=O)c3c(Cl)ccc(Cl)c3F)c[nH]2)no1 [Example 58, 4-(3,6-Dichloro-2-fluorobenzoyl)-N-(5-methylisoxazol-3-yl)-1H-pyrrole-2-carboxamide] | 2480 nM
2 | COc1ccc(Cl)c(C(=O)c2c[nH]c(C(=O)Nc3ccc(NC4CCN(C)CC4)nc3)c2)c1F [Example 61, 4-(6-Chloro-2-fluoro-3-methoxybenzoyl)-N-(6-((1-methylpiperidin-4-yl)amino)pyridin-3-yl)-1H-pyrrole-2-carboxamide] | 26.9 nM
3 | COc1ccc(Cl)c(C(=O)c2c[nH]c(C(=O)Nc3cnn(C)c3)c2)c1F [Example 62, 4-(6-Chloro-2-fluoro-3-methoxybenzoyl)-N-(1-methyl-1H-pyrazol-4-yl)-1H-pyrrole-2-carboxamide] | 84.3 nM
4 | COCCn1cc(NC(=O)c2cc(C(=O)c3c(Cl)ccc(OC)c3F)c[nH]2)cn1 [Example 63, 4-(6-Chloro-2-fluoro-3-methoxybenzoyl)-N-(1-(2-methoxyethyl)-1H-pyrazol-4-yl)-1H-pyrrole-2-carboxamide] | 104 nM
5 | COc1ccc(Cl)c(C(=O)c2c[nH]c(C(=O)Nc3cnn(C4CCN(CC(F)(F)F)CC4)c3)c2)c1F [Example 64, 4-(6-Chloro-2-fluoro-3-methoxybenzoyl)-N-(1-(1-(2,2,2-trifluoroethyl)piperidin-4-yl)-1H-pyrazol-4-yl)-1H-pyrrole-2-carboxamide] | 2990 nM
6 | COc1ccc(Cl)c(C(=O)c2c[nH]c(C(=O)Nc3cnn(Cc4ccccn4)c3)c2)c1F [Example 65] | 53.8 nM
7 | COc1ccc(Cl)c(C(=O)c2c[nH]c(C(=O)Nc3cnn(Cc4cccnc4)c3)c2)c1F [Example 66, 4-(6-Chloro-2-fluoro-3-methoxybenzoyl)-N-(1-(pyridin-3-ylmethyl)-1H-pyrazol-4-yl)-1H-pyrrole-2-carboxamide] | 16.6 nM
8 | COc1ccc(Cl)c(C(=O)c2c[nH]c(C(=O)Nc3cnn(Cc4ccncc4)c3)c2)c1F [Example 67] | 16.3 nM
9 | COc1ccc(Cl)c(C(=O)c2c[nH]c(C(=O)Nc3cnn(CC4CCN(C)CC4)c3)c2)c1F [Example 68, 4-(6-Chloro-2-fluoro-3-methoxybenzoyl)-N-(1-((1-methylpiperidin-4-yl)methyl)-1H-pyrazol-4-yl)-1H-pyrrole-2-carboxamide] | 19.9 nM
10 | COc1ccc(F)c(C(=O)c2c[nH]c(C(=O)NC3CCN(C)CC3)c2)c1Cl [Example 71, 4-(2-chloro-6-fluoro-3-methoxybenzoyl)-N-(1-methylpiperidin-4-yl)-1H-pyrrole-2-carboxamide] | 173 nM
11 | COc1ccc(F)c(C(=O)c2c[nH]c(C(=O)Nc3cccnc3)c2)c1Cl [Example 73, 4-(2-chloro-6-fluoro-3-methoxybenzoyl)-N-(pyridin-3-yl)-1H-pyrrole-2-carboxamide] | 255 nM
12 | COc1ccc(Cl)c(C(=O)c2c[nH]c(C(=O)Nc3cncnc3)c2)c1F [Example 74, 4-(6-chloro-2-fluoro-3-methoxybenzoyl)-N-(pyrimidin-5-yl)-1H-pyrrole-2-carboxamide] | 202 nM
13 | COc1ccc(F)c(C(=O)c2c[nH]c(C(=O)Nc3cncnc3)c2)c1Cl [Example 75, 4-(2-chloro-6-fluoro-3-methoxybenzoyl)-N-(pyrimidin-5-yl)-1H-pyrrole-2-carboxamide] | 437 nM
14 | CCc1ncccc1NC(=O)c1cc(C(=O)c2c(F)cccc2Cl)c[nH]1 [Example 76, 4-(2-Chloro-6-fluorobenzoyl)-N-(2-ethylpyridin-3-yl)-1H-pyrrole-2-carboxamide] | 1580 nM
15 | O=C(Nc1cccnc1N1CCCC1)c1cc(C(=O)c2c(F)cccc2Cl)c[nH]1 [Example 80, 4-(2-Chloro-6-fluorobenzoyl)-N-(2-(pyrrolidin-1-yl)pyridin-3-yl)-1H-pyrrole-2-carboxamide] | 7980 nM
16 | Cc1ncccc1NC(=O)c1cc(C(=O)c2c(Cl)ccc(Cl)c2F)c[nH]1 [Example 81, 4-(3,6-Dichloro-2-fluorobenzoyl)-N-(2-methylpyridin-3-yl)-1H-pyrrole-2-carboxamide] | 394 nM
17 | CCc1ncccc1NC(=O)c1cc(C(=O)c2c(Cl)ccc(Cl)c2F)c[nH]1 [Example 82, 4-(3,6-Dichloro-2-fluorobenzoyl)-N-(2-ethylpyridin-3-yl)-1H-pyrrole-2-carboxamide] | 1050 nM
18 | CCCc1ncccc1NC(=O)c1cc(C(=O)c2c(Cl)ccc(Cl)c2F)c[nH]1 [Example 83, 4-(3,6-Dichloro-2-fluorobenzoyl)-N-(2-propylpyridin-3-yl)-1H-pyrrole-2-carboxamide] | 3540 nM

Row | SMILES | IC50
19 | COc1ncccc1NC(=O)c1cc(C(=O)c2c(Cl)ccc(Cl)c2F)c[nH]1 [Example 84, 4-(3,6-Dichloro-2-fluorobenzoyl)-N-(2-methoxypyridin-3-yl)-1H-pyrrole-2-carboxamide] | 1180 nM
20 | CCOc1ncccc1NC(=O)c1cc(C(=O)c2c(Cl)ccc(Cl)c2F)c[nH]1 [Example 85, 4-(3,6-Dichloro-2-fluorobenzoyl)-N-(2-ethoxypyridin-3-yl)-1H-pyrrole-2-carboxamide] | 6050 nM
21 | O=C(Nc1cccnc1N1CCCC1)c1cc(C(=O)c2c(Cl)ccc(Cl)c2F)c[nH]1 [Example 86, 4-(3,6-Dichloro-2-fluorobenzoyl)-N-(2-(pyrrolidin-1-yl)pyridin-3-yl)-1H-pyrrole-2-carboxamide] | 12200 nM
22 | Cc1ccncc1NC(=O)c1cc(C(=O)c2c(F)cccc2Cl)c[nH]1 [Example 87, 4-(2-Chloro-6-fluorobenzoyl)-N-(4-methylpyridin-3-yl)-1H-pyrrole-2-carboxamide] | 1260 nM
23 | CCc1ccncc1NC(=O)c1cc(C(=O)c2c(F)cccc2Cl)c[nH]1 [Example 88, 4-(2-Chloro-6-fluorobenzoyl)-N-(4-ethylpyridin-3-yl)-1H-pyrrole-2-carboxamide] | 2140 nM
24 | CCCc1ccncc1NC(=O)c1cc(C(=O)c2c(F)cccc2Cl)c[nH]1 [Example 89, 4-(2-Chloro-6-fluorobenzoyl)-N-(4-propylpyridin-3-yl)-1H-pyrrole-2-carboxamide] | 3340 nM
25 | COc1ccncc1NC(=O)c1cc(C(=O)c2c(F)cccc2Cl)c[nH]1 [Example 90, 4-(2-Chloro-6-fluorobenzoyl)-N-(4-methoxypyridin-3-yl)-1H-pyrrole-2-carboxamide] | 2190 nM
26 | CCOc1ccncc1NC(=O)c1cc(C(=O)c2c(F)cccc2Cl)c[nH]1 [Example 91, 4-(2-Chloro-6-fluorobenzoyl)-N-(4-ethoxypyridin-3-yl)-1H-pyrrole-2-carboxamide] | 2310 nM
27 | O=C(Nc1cnccc1N1CCCC1)c1cc(C(=O)c2c(F)cccc2Cl)c[nH]1 [Example 92, 4-(2-Chloro-6-fluorobenzoyl)-N-(4-(pyrrolidin-1-yl)pyridin-3-yl)-1H-pyrrole-2-carboxamide] | 16500 nM
28 | Cc1ccncc1NC(=O)c1cc(C(=O)c2c(Cl)ccc(Cl)c2F)c[nH]1 [Example 93, 4-(3,6-Dichloro-2-fluorobenzoyl)-N-(4-methylpyridin-3-yl)-1H-pyrrole-2-carboxamide] | 483 nM
29 | CCc1ccncc1NC(=O)c1cc(C(=O)c2c(Cl)ccc(Cl)c2F)c[nH]1 [Example 94, 4-(3,6-Dichloro-2-fluorobenzoyl)-N-(4-ethylpyridin-3-yl)-1H-pyrrole-2-carboxamide] | 1670 nM
30 | CCCc1ccncc1NC(=O)c1cc(C(=O)c2c(Cl)ccc(Cl)c2F)c[nH]1 [Example 95, 4-(3,6-Dichloro-2-fluorobenzoyl)-N-(4-propylpyridin-3-yl)-1H-pyrrole-2-carboxamide] | 2820 nM
31 | COc1ccncc1NC(=O)c1cc(C(=O)c2c(Cl)ccc(Cl)c2F)c[nH]1 [Example 96, 4-(3,6-Dichloro-2-fluorobenzoyl)-N-(4-methoxypyridin-3-yl)-1H-pyrrole-2-carboxamide] | 1000 nM
32 | CCOc1ccncc1NC(=O)c1cc(C(=O)c2c(Cl)ccc(Cl)c2F)c[nH]1 [Example 97, 4-(3,6-Dichloro-2-fluorobenzoyl)-N-(4-ethoxypyridin-3-yl)-1H-pyrrole-2-carboxamide] | 1380 nM
33 | O=C(Nc1cnccc1N1CCCC1)c1cc(C(=O)c2c(Cl)ccc(Cl)c2F)c[nH]1 [Example 98, 4-(3,6-Dichloro-2-fluorobenzoyl)-N-(4-(pyrrolidin-1-yl)pyridin-3-yl)-1H-pyrrole-2-carboxamide] | 8710 nM
34 | CS(=O)(=O)CCNc1ncc(NC(=O)c2cc(C(=O)c3c(Cl)ccc(Cl)c3F)c[nH]2)cn1 [Example 101, 4-(3,6-Dichloro-2-fluorobenzoyl)-N-(2-((2-(methylsulfonyl)ethyl)amino)pyrimidin-5-yl)-1H-pyrrole-2-carboxamide] | 115 nM
35 | CN1CCC(N(C)c2ncc(NC(=O)c3cc(C(=O)c4c(Cl)ccc(Cl)c4F)c[nH]3)cn2)CC1 [Example 105, 4-(3,6-Dichloro-2-fluorobenzoyl)-N-(2-(methyl(1-methylpiperidin-4-yl)amino)pyrimidin-5-yl)-1H-pyrrole-2-carboxamide] | 20.7 nM
